pEC50: −log10 of the molar value.
Assays:
[1] = tested on: HCV genotype 1a (H77 strain) replicon in HUH-7 cells; test: HCV replicon luciferase reporter assay, genotype 1a; assay type: cell-based; settings: Hepatitis C virus, 72 h, HCV genotype 1a replicon, 3 days incubation, Renilla luciferase
Source text: (§1) An HCV replicon whole cell system was established as described by Lohmann V, Korner F, Koch J, Herian U, Theilmann L, Bartenschlager R., Science 285(5424):110-3 (1999) and modified to introduce a luciferase reporter, as first described by Krieger et al (Krieger N, Lohmann V, and Bartenschlager R, J. Virol. 75(10):4614-4624 (2001)). CDNA encoding a humanized form of the Renilla luciferase gene and a linker sequence fused directly to the 3′-end of the luciferase gene were introduced into the replicon construct using an Asc1 restriction site located in core, directly upstream of the neomycin marker gene. The adaptive mutation at position 1179 (serine to isoleucine) was also introduced (Blight K J, Kolykhalov, A A, Rice, C M, Science 290(5498):1972-1974). A stable cell line constitutively expressing this HCV replicon construct was generated by first linearizing plasmid DNAs with ScaI. RNA transcripts were synthesized in vitro using the T7 MegaScript transcription kit (Ambion, Austin, Tex.) according to manufacturer's directions. In vitro transcripts of the cDNA were transfected into the human hepatoma cell line, HUH-7. […] Resulting cell lines were characterized for positive and negative strand RNA production and protein production over time.
A stable HCV replicon luciferase reporter cell line representing the genotype 1a H77 strain (Yanagi M, Purcell R H, Emerson S U, et al. Transcripts from a single full-length cDNA clone of hepatitis C virus are infectious when directly transfected into the liver of a chimpanzee. Proc Natl Acad Sci USA 1997; 94(16):8738-8743) was generated as described previously for the genotype 1b (Con1) replicon luciferase cell line. The replicon construct was modified by introducing mutations were introduced into the genes encoding the NS3 helicase domain (proline replaced by leucine at position 1496) and NS5A (serine to isoleucine at position 2204) to improve replication in cell culture.
(§2) HCV replicon luciferase assays were developed to monitor the inhibitory effects of compounds described in the disclosure on HCV genotypes 1a and 1b viral replication. HUH-7 cells, constitutively expressing the HCV replicon, were grown in Dulbecco's Modified Eagle Media (DMEM) (Gibco-BRL) containing 10% Fetal calf serum (FCS) (Sigma) and 1 mg/mL G418 (Gibco-BRL). Compounds were serially diluted 3 folds in DMSO for a twenty-point titration and subsequently transferred to sterile 384-well tissue-culture treated plates (Corning cat #3571). The plates were then seeded with 50 μL of cells at a density of 3.0×10^3 cells/well in DMEM containing 4% FCS (final DMSO concentration at 0.5%). After 3 days incubation at 37° C., cells were analyzed for Renilla Luciferase activity using the EnduRen as substrate (Promega cat #E6485). The EnduRen substrate was diluted in DMEM and then added to the plates to a final concentration of 7.5 μM. The plates were incubated for 2 hrs at 37° C. and then read immediately for 30 seconds with Viewlux Imager (PerkinElmer) using a luminescence program. To assess cytotoxicity of compounds, CC50 values were generated by multiplexing the EnduRen-containing plates with Cell Titer-Blue (Promega, cat #G8082). Cell-Titer Blue (3 μL) was added to each well and incubated for 8 hrs at 37° C. The fluorescence signal from each well was read, with an excitation wavelength at 525/10 nm and an emission wavelength of 598/10 nm, using the Viewlux Imager.
(§3) The EC50 values for compounds were calculated by using a four-parameter logistic equation: y=A+((B−A)/(1+((C/x)^D))), where A and B denotes minimal and maximal % inhibition, respectively, C is the EC50, D is the hill slope and x represents compound concentration.

[2] = tested on: HCV genotype 1b (Con1) replicon in HUH-7 cells; test: HCV replicon luciferase reporter assay, genotype 1b; assay type: cell-based; settings: Hepatitis C virus, 72 h, HCV genotype 1b replicon, 3 days incubation, Renilla luciferase
Source text: as §1, with “time. […]” for “time.”
as §2, §3

SMILES	pEC50 ([1]; numeric values)	pEC50 ([2]; numeric values)	pEC50 ([1]; range classes)	pEC50 ([2]; range classes)
COc1ccc2nc(O[C@@H]3C[C@H]4C(=O)N[C@]5(C(=O)NS(=O)(=O)C6CC6)C[C@H]5/C=C\[C@H](C)CCC[C@@H](C)[C@H](NC(=O)OC(C)(C)C)C(=O)N4C3)cnc2c1 [Compound 26, tert-butyl (2R,6S,7R,11R,13aS,14aR,16aS,Z)-14a-(cyclopropylsulfonylcarbamoyl)-2-(6-methoxyquinoxalin-2-yloxy)-7,11-dimethyl-5,16-dioxo-1,2,3,5,6,7,8,9,10,11,13a,14,14a,15,16,16a-hexadecahydrocyclopropa[e]pyrrolo[1,2-a][1,4]diazacyclopentadecin-6-ylcarbamate]	6.67	7.06	–	–
COc1ccc2nc(O[C@@H]3C[C@H]4C(=O)N[C@]5(C(=O)NS(=O)(=O)C6CC6)C[C@H]5/C=C\[C@@H](C)CCC[C@@H](C)[C@H](NC(=O)OC(C)(C)C)C(=O)N4C3)cnc2c1 [Compound 27, tert-butyl (2R,6S,7R,11S,13aS,14aR,16aS,Z)-14a-(cyclopropylsulfonylcarbamoyl)-2-(6-methoxyquinoxalin-2-yloxy)-7,11-dimethyl-5,16-dioxo-1,2,3,5,6,7,8,9,10,11,13a,14,14a,15,16,16a-hexadecahydrocyclopropa[e]pyrrolo[1,2-a][1,4]diazacyclopentadecin-6-ylcarbamate]	–	–	7.17 to 8.30	7.17 to 8.30
COc1ccc2ncc(O[C@@H]3C[C@H]4C(=O)N[C@]5(C(=O)NS(=O)(=O)C6CC6)C[C@H]5/C=C\[C@H](C)CCC[C@@H](C)[C@H](NC(=O)OC(C)(C)C)C(=O)N4C3)nc2c1 [Compound 28, tert-butyl (2R,6S,7R,11R,13aS,14aR,16aS,Z)-14a-(cyclopropylsulfonylcarbamoyl)-2-(7-methoxyquinoxalin-2-yloxy)-7,11-dimethyl-5,16-dioxo-1,2,3,5,6,7,8,9,10,11,13a,14,14a,15,16,16a-hexadecahydrocyclopropa[e]pyrrolo[1,2-a][1,4]diazacyclopentadecin-6-ylcarbamate]	–	–	7.17 to 8.30	8.70 to 9.00
COc1ccc2ncc(O[C@@H]3C[C@H]4C(=O)N[C@]5(C(=O)NS(=O)(=O)C6CC6)C[C@H]5/C=C\[C@@H](C)CCC[C@@H](C)[C@H](NC(=O)OC(C)(C)C)C(=O)N4C3)nc2c1 [Compound 29, tert-butyl (2R,6S,7R,11S,13aS,14aR,16aS,Z)-14a-(cyclopropylsulfonylcarbamoyl)-2-(7-methoxyquinoxalin-2-yloxy)-7,11-dimethyl-5,16-dioxo-1,2,3,5,6,7,8,9,10,11,13a,14,14a,15,16,16a-hexadecahydrocyclopropa[e]pyrrolo[1,2-a][1,4]diazacyclopentadecin-6-ylcarbamate]	–	–	7.17 to 8.30	7.17 to 8.30
COc1ccc2ncc(O[C@@H]3C[C@H]4C(=O)N[C@]5(C(=O)NS(=O)(=O)C6CC6)C[C@H]5/C=C\[C@H](C)CCC[C@@H](C)[C@H](NC(=O)OC(C)(C)C(F)(F)F)C(=O)N4C3)nc2c1 [Compound 30, 1,1,1-trifluoro-2-methylpropan-2-yl (2R,6S,7R,11R,13aS,14aR,16aS,Z)-14a-(cyclopropylsulfonylcarbamoyl)-2-(7-methoxyquinoxalin-2-yloxy)-7,11-dimethyl-5,16-dioxo-1,2,3,5,6,7,8,9,10,11,13a,14,14a,15,16,16a-hexadecahydrocyclopropa[e]pyrrolo[1,2-a][1,4]diazacyclopentadecin-6-ylcarbamate]	–	–	8.30 to 8.70	9.00 to 9.70
COc1ccc2ncc(O[C@@H]3C[C@H]4C(=O)N[C@]5(C(=O)NS(=O)(=O)C6CC6)C[C@H]5/C=C\[C@@H](C)CCC[C@@H](C)[C@H](NC(=O)OC(C)(C)C(F)(F)F)C(=O)N4C3)nc2c1 [Compound 31, 1,1,1-trifluoro-2-methylpropan-2-yl (2R,6S,7R,11S,13aS,14aR,16aS,Z)-14a-(cyclopropylsulfonylcarbamoyl)-2-(7-methoxyquinoxalin-2-yloxy)-7,11-dimethyl-5,16-dioxo-1,2,3,5,6,7,8,9,10,11,13a,14,14a,15,16,16a-hexadecahydrocyclopropa[e]pyrrolo[1,2-a][1,4]diazacyclopentadecin-6-ylcarbamate]	–	–	7.17 to 8.30	7.17 to 8.30
COc1ccc2nc(O[C@@H]3C[C@H]4C(=O)N[C@]5(C(=O)NS(=O)(=O)C6CC6)C[C@H]5/C=C\[C@H](C)CCC[C@@H](C)[C@H](NC(=O)OC(C)(C)C(F)(F)F)C(=O)N4C3)cnc2c1 [Compound 32, 1,1,1-trifluoro-2-methylpropan-2-yl (2R,6S,7R,11R,13aS,14aR,16aS,Z)-14a-(cyclopropylsulfonylcarbamoyl)-2-(6-methoxyquinoxalin-2-yloxy)-7,11-dimethyl-5,16-dioxo-1,2,3,5,6,7,8,9,10,11,13a,14,14a,15,16,16a-hexadecahydrocyclopropa[e]pyrrolo[1,2-a][1,4]diazacyclopentadecin-6-ylcarbamate]	–	–	7.17 to 8.30	7.17 to 8.30
COc1cc2c(OC)cnc(O[C@@H]3C[C@H]4C(=O)N[C@]5(C(=O)NS(=O)(=O)C6CC6)C[C@H]5/C=C\[C@H](C)CCC[C@@H](C)[C@H](NC(=O)OC(C)(C)C(F)(F)F)C(=O)N4C3)c2cc1F [Compound 33, 1,1,1-trifluoro-2-methylpropan-2-yl (2R,6S,7R,11R,13aS,14aR,16aS,Z)-14a-(cyclopropylsulfonylcarbamoyl)-2-(7-fluoro-4,6-dimethoxyisoquinolin-1-yloxy)-7,11-dimethyl-5,16-dioxo-1,2,3,5,6,7,8,9,10,11,13a,14,14a,15,16,16a-hexadecahydrocyclopropa[e]pyrrolo[1,2-a][1,4]diazacyclopentadecin-6-ylcarbamate]	–	–	8.30 to 8.70	8.70 to 9.00
C[C@@H]1CCC[C@@H](C)/C=C\[C@@H]2C[C@@]2(C(=O)NS(=O)(=O)C2CC2)NC(=O)[C@@H]2C[C@@H](Oc3nccc4ccccc34)CN2C(=O)[C@H]1NC(=O)OC(C)(C)C(F)(F)F [Compound 34, 1,1,1-trifluoro-2-methylpropan-2-yl (2R,6S,7R,11R,13aS,14aR,16aS,Z)-14a-(cyclopropylsulfonylcarbamoyl)-2-(isoquinolin-1-yloxy)-7,11-dimethyl-5,16-dioxo-1,2,3,5,6,7,8,9,10,11,13a,14,14a,15,16,16a-hexadecahydrocyclopropa[e]pyrrolo[1,2-a][1,4]diazacyclopentadecin-6-ylcarbamate]	–	–	8.30 to 8.70	9.00 to 9.70

— US8691757B2 (Bristol-Myers Squibb Company, priority 2011, dated 2014)
